# Numbered stars: 1 amine (or outer) side, 2 acyl side, 3 side chain; on linkers, the order of the positions; unused ones are H or OH. Square brackets hold non-standard residues; d marks the D form. Peptide text beside a SMILES is read from it. * marks the point of attachment. ξ: configuration not given here. X1 = N=C1NCC(C(O)C(N[*:1])C(=O)[*:2])N1C1OC(CO)C(O)C(O)C1O; ξEnduracididine(βξ-OH,4'ξ) = N=C1NCC(C(O)C(N)C(=O)O)N1; X2 = OCC1OC(OC2C(CO)OC(*)C(O)C2O)C(O)C(O)C1O; ξPhe(βξ-Me) = CC(c1ccccc1)C(N)C(=O)O
# Key:
# [1] = system: Micrococcus luteus (ATCC 9341); test: In vitro antibacterial activity, agar dilution MIC; assay type: cell-based; conditions: ATCC9341, Mueller-Hinton agar, 5% sheep blood, 18 hours
# Protocol: (§1) The in vitro antibacterial activity of substantially pure glycopeptide antibiotics AC-98-1, AC-98-2, AC-98-3, AC-98-4, and AC-98-5 from Examples 2 and 3 is determined against a spectrum of bacteria by a standard agar dilution method. Mueller-Hinton agar containing 5% sheep blood and two-fold decreasing concentrations of substantially pure glycopeptide antibiotics AC-98-1, AC-98-2, AC-98-3, AC-98-4, and AC-98-5 from Examples 2 and 3 are poured into petri dishes. The agar surfaces are inoculated with 1 to 5×10^4 colony forming units of bacteria by means of a Steers replicating device. The lowest concentration of antibiotic that inhibited the growth of a bacterial strain after 18 hours incubation is recorded as the minimal inhibitory concentration for that strain.
# [2] = system: Streptococcus pneumoniae (ID-4444); test: In vitro antibacterial activity, agar dilution MIC; assay type: cell-based; conditions: Mueller-Hinton agar, 5% sheep blood, 18 hours
# Protocol: as §1
# [3] = system: Staphylococcus aureus Smith; test: In vivo antibacterial activity in infected mice; conditions: female CD-1 mice infected intraperitoneally with Staphylococcus aureus Smith; treated intravenously 30 minutes before infection; read-out: ED50 (iv, mg/kg) Staphylococcus aureus
# Protocol: The in vivo antibacterial activity of substantially pure glycopeptides AC-98-1, AC-98-2, AC-98-3, AC-98-4, and AC-98-5 is established by infecting female CD-1 mice from Charles River Laboratories, weighing 20+/−2 g each, intraperitoneally with 6.5×10^5 CFU/0.5 ml of broth of Staphylococcus aureus Smith. The mice are treated intravenously, 30 minutes before infection with the indicated dose of the test compound in 0.2 ml of water.
# [4] = system: Staphylococcus aureus (ID-4379); test: In vitro antibacterial activity, agar dilution MIC; assay type: cell-based; conditions: Mueller-Hinton agar, 5% sheep blood, 18 hours
# Protocol: as §1
# Escherichia coli (J2175) = test: In vitro antibacterial activity, agar dilution MIC; assay type: cell-based; conditions: Mueller-Hinton agar, 5% sheep blood, 18 hours
# Protocol: as §1
# [5] = system: Escherichia coli (ATCC 25922); test: In vitro antibacterial activity, agar dilution MIC; assay type: cell-based; conditions: ATCC25922, Mueller-Hinton agar, 5% sheep blood, 18 hours
# Protocol: as §1
# [6] = system: Enterococcus faecium (ID-3301); test: In vitro antibacterial activity, agar dilution MIC; assay type: cell-based; conditions: Mueller-Hinton agar, 5% sheep blood, 18 hours
# Protocol: as §1
# [7] = system: Enterococcus faecium (ID-3953); test: In vitro antibacterial activity, agar dilution MIC; assay type: cell-based; conditions: Mueller-Hinton agar, 5% sheep blood, 18 hours
# Protocol: as §1
# [8] = system: Streptococcus pneumoniae (GC1889); test: In vitro antibacterial activity, agar dilution MIC; assay type: cell-based; conditions: Mueller-Hinton agar, 5% sheep blood, 18 hours
# Protocol: as §1
SMILES,MIC [1],MIC [2],ED50 [3],MIC [4],MIC (Escherichia coli (J2175)),MIC [5],MIC [6],MIC [7],MIC [8]
"CC(c1ccccc1)C1NC(=O)CNC(=O)C(CO)NC(=O)C(C(O)C2CNC(=N)N2C2OC(CO)C(O)C(O)C2O)NC(=O)C(C(O)C2CNC(=N)N2)NC(=O)C(Cc2ccc(OC3OC(CO)C(OC4OC(CO)C(O)C(O)C4O)C(O)C3O)cc2)NC1=O (stereo not drawn) [AC-98-1] (cyclo(G[ξPhe(βξ-Me)]Y(X2)[ξEnduracididine(βξ-OH,4'ξ)][X1]S); configuration not given here)",64 mg/mL,> 32 mg/mL,20 mg/kg,,,,,,
"CC(c1ccccc1)C1NC(=O)CNC(=O)C(CO)NC(=O)C(C(O)C2CNC(=N)N2C2OC(CO)C(O)C(O)C2O)NC(=O)C(C(O)C2CNC(=N)N2)NC(=O)C(Cc2ccc(O)cc2)NC1=O (stereo not drawn) [AC-98-2] (cyclo(G[ξPhe(βξ-Me)]Y[ξEnduracididine(βξ-OH,4'ξ)][X1]S); configuration not given here)",16 mg/mL,> 64 mg/mL,> 32 mg/kg,64 mg/mL,64 mg/mL,64 mg/mL,,,
CC(C)CC(=O)OC1C(OC2C(CO)OC(Oc3ccc(CC4NC(=O)C(C(C)c5ccccc5)NC(=O)CNC(=O)C(CO)NC(=O)C(C(O)C5CNC(=N)N5C5OC(CO)C(O)C(O)C5O)NC(=O)C(C(O)C5CNC(=N)N5)NC4=O)cc3)C(O)C2O)OC(CO)C(O)C1O (stereo not drawn) [AC-98-3],2 mg/mL,8 mg/mL,3.8 mg/kg,8 mg/mL,,,64 mg/mL,64 mg/mL,4 mg/mL
CC(C)CC(=O)OC1C(O)C(CO)OC(OC2C(CO)OC(Oc3ccc(CC4NC(=O)C(C(C)c5ccccc5)NC(=O)CNC(=O)C(CO)NC(=O)C(C(O)C5CNC(=N)N5C5OC(CO)C(O)C(O)C5O)NC(=O)C(C(O)C5CNC(=N)N5)NC4=O)cc3)C(O)C2O)C1O (stereo not drawn) [AC-98-4],2 mg/mL,4 mg/mL,2.6 mg/kg,4 mg/mL,,,64 mg/mL,64 mg/mL,4 mg/mL
CC(C)CC(=O)OC1C(CO)OC(OC2C(CO)OC(Oc3ccc(CC4NC(=O)C(C(C)c5ccccc5)NC(=O)CNC(=O)C(CO)NC(=O)C(C(O)C5CNC(=N)N5C5OC(CO)C(O)C(O)C5O)NC(=O)C(C(O)C5CNC(=N)N5)NC4=O)cc3)C(O)C2O)C(O)C1O (stereo not drawn) [AC-98-5],1 mg/mL,2 mg/mL,0.6 mg/kg,4 mg/mL,64 mg/mL,,16 mg/mL,32 mg/mL,
